In PubChem BioAssay AID2060493 (Molecular Pharmacology Branch, DTP, NCI, 2025):

System: 616215-338-R-J1-PDC tumor spheroids, viability
Test: Anticancer human tumor 616215-338-R-J1-PDC patient-derived colon adenocarcinoma cell line growth inhibition [GQUAD]
Conditions: spheroids with HUVEC and MSC; for IC50: curve of first compound; for viability, T/C: stronger effect = lower value; active = viability on the fitted dose curve at most 10% of control; inactive = the rest
How it was run: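 Viability of tumor cells grown as complex spheroids with endothelial and stromal cells, exposed to drug combinations. Top concentration at or near clinical Cmax (else 10 microM), diluted in half-log increments.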

[1] = second compound 0.0316 µM, first compound 0.0316 µM
[2] = second compound 0.0316 µM, first compound 0.1 µM
[3] = second compound 0.0316 µM, first compound 0.316 µM
[4] = second compound 0.0316 µM, first compound 1 µM
[5] = second compound 0.0316 µM, first compound 3.16 µM
[6] = second compound 0.0316 µM, first compound 10 µM
[7] = second compound 0.1 µM, first compound 0.0316 µM
[8] = second compound 0.1 µM, first compound 0.1 µM
[9] = second compound 0.1 µM, first compound 0.316 µM
[10] = second compound 0.1 µM, first compound 1 µM
[11] = second compound 0.1 µM, first compound 3.16 µM
[12] = second compound 0.1 µM, first compound 10 µM
[13] = second compound 0.316 µM, first compound 0.0316 µM
[14] = second compound 0.316 µM, first compound 0.1 µM
[15] = second compound 0.316 µM, first compound 0.316 µM
[16] = second compound 0.316 µM, first compound 1 µM
[17] = second compound 0.316 µM, first compound 3.16 µM
[18] = second compound 0.316 µM, first compound 10 µM
[19] = second compound 1 µM, first compound 0.0316 µM
[20] = second compound 1 µM, first compound 0.1 µM
[21] = second compound 1 µM, first compound 0.316 µM
[22] = second compound 1 µM, first compound 1 µM
[23] = second compound 1 µM, first compound 3.16 µM
[24] = second compound 1 µM, first compound 10 µM
[25] = second compound 3.16 µM, first compound 0.0316 µM
[26] = second compound 3.16 µM, first compound 0.1 µM
[27] = second compound 3.16 µM, first compound 0.316 µM
[28] = second compound 3.16 µM, first compound 1 µM
[29] = second compound 3.16 µM, first compound 3.16 µM
[30] = second compound 3.16 µM, first compound 10 µM
[31] = second compound 10 µM, first compound 0.0316 µM
[32] = second compound 10 µM, first compound 0.1 µM
[33] = second compound 10 µM, first compound 0.316 µM
[34] = second compound 10 µM, first compound 1 µM
[35] = second compound 10 µM, first compound 3.16 µM
[36] = second compound 10 µM, first compound 10 µM
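Also: spheroids exposed to agents for 7 days before readout.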
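For viability, T/C in this document: percent viability relative to DMSO vehicle control wells taken as 100%.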

CC1COCCN1c1cc(-c2ccnn2C)c2ccnc(-c3ccn[nH]3)c2n1 (stereo unspecified) + Cc1[nH]c2ccc(F)cc2c1-c1nc2c3cccnc3c3ncccc3c2[nH]1
185 nM: IC50 (second compound 0.316 µM)
224 nM: IC50 (second compound 0.0316 µM)
139 nM: IC50 (second compound 0.1 µM)
170 nM: IC50 (second compound 1 µM)
140 nM: IC50 (second compound 3.16 µM) | IC50 (second compound 10 µM)
inactive: viability, T/C [1] 96.6% | viability, T/C [2] 70.7% | viability, T/C [3] 41.7% | viability, T/C [4] 25.1% | viability, T/C [5] 30.2% | viability, T/C [6] 20.1% | viability, T/C [7] 97.8% | viability, T/C [8] 56.3% | viability, T/C [9] 34.1% | viability, T/C [10] 25.2% | viability, T/C [11] 24.9% | viability, T/C [12] 19.9% | viability, T/C [13] 91.5% | viability, T/C [14] 62.1% | viability, T/C [15] 40% | viability, T/C [16] 27.7% | viability, T/C [17] 22.6% | viability, T/C [18] 23.9% | viability, T/C [19] 91.5% | viability, T/C [20] 63% | viability, T/C [21] 33.6% | viability, T/C [22] 32.2% | viability, T/C [23] 22.9% | viability, T/C [24] 24.7% | viability, T/C [25] 91.9% | viability, T/C [26] 57.9% | viability, T/C [27] 30.2% | viability, T/C [28] 26.1% | viability, T/C [29] 21.2% | viability, T/C [30] 17.9% | viability, T/C [31] 90.1% | viability, T/C [32] 50% | viability, T/C [33] 40.3% | viability, T/C [34] 31.5% | viability, T/C [35] 22.6% | viability, T/C [36] 16.4%

CC1COCCN1c1cc(-c2ccnn2C)c2ccnc(-c3ccn[nH]3)c2n1 (stereo unspecified) + Cc1cnc(CNC(=O)c2c(=O)c3ccc(N4CCCN(C)CC4)nc3n3c2sc2ccccc23)cn1
< 31.6 nM: IC50 (second compound 0.0316 µM) | IC50 (second compound 0.1 µM) | IC50 (second compound 0.316 µM) | IC50 (second compound 1 µM) | IC50 (second compound 3.16 µM) | IC50 (second compound 10 µM)
inactive: viability, T/C [1] 49.5% | viability, T/C [2] 29.5% | viability, T/C [3] 31.4% | viability, T/C [4] 24.8% | viability, T/C [5] 25.9% | viability, T/C [6] 21.4% | viability, T/C [7] 42.5% | viability, T/C [8] 35.8% | viability, T/C [9] 29.2% | viability, T/C [10] 25.7% | viability, T/C [11] 23.7% | viability, T/C [12] 20.7% | viability, T/C [13] 28.4% | viability, T/C [14] 32.1% | viability, T/C [15] 26% | viability, T/C [16] 28.5% | viability, T/C [17] 37.4% | viability, T/C [18] 24.8% | viability, T/C [19] 30.6% | viability, T/C [20] 29.8% | viability, T/C [21] 31.9% | viability, T/C [22] 24% | viability, T/C [23] 19.6% | viability, T/C [24] 17.9% | viability, T/C [25] 28.8% | viability, T/C [26] 22.4% | viability, T/C [27] 25.8% | viability, T/C [28] 24.4% | viability, T/C [29] 22.5% | viability, T/C [30] 17% | viability, T/C [31] 30.2% | viability, T/C [32] 22.7% | viability, T/C [33] 23% | viability, T/C [34] 19.7% | viability, T/C [35] 24.2% | viability, T/C [36] 19.3%

CCCS(=O)(=O)Nc1ccc(F)c(C(=O)c2c[nH]c3ncc(-c4ccc(Cl)cc4)cc23)c1F + Cc1[nH]c2ccc(F)cc2c1-c1nc2c3cccnc3c3ncccc3c2[nH]1
5420 nM: IC50 (second compound 1 µM)
4760 nM: IC50 (second compound 10 µM)
5280 nM: IC50 (second compound 0.1 µM)
5620 nM: IC50 (second compound 0.316 µM)
5540 nM: IC50 (second compound 0.0316 µM)
5190 nM: IC50 (second compound 3.16 µM)
inactive: viability, T/C [1] 105% | viability, T/C [2] 96.7% | viability, T/C [3] 93.8% | viability, T/C [4] 99.1% | viability, T/C [5] 94.9% | viability, T/C [7] 93.6% | viability, T/C [8] 107% | viability, T/C [9] 102% | viability, T/C [10] 102% | viability, T/C [11] 87.6% | viability, T/C [13] 104% | viability, T/C [14] 98.7% | viability, T/C [15] 99% | viability, T/C [16] 98% | viability, T/C [17] 96.5% | viability, T/C [19] 109% | viability, T/C [20] 106% | viability, T/C [21] 89% | viability, T/C [22] 96.3% | viability, T/C [23] 91.5% | viability, T/C [25] 96.7% | viability, T/C [26] 91.4% | viability, T/C [27] 101% | viability, T/C [28] 95.2% | viability, T/C [29] 86.6% | viability, T/C [31] 101% | viability, T/C [32] 92.3% | viability, T/C [33] 101% | viability, T/C [34] 93.5% | viability, T/C [35] 76.8%
active: viability, T/C [6] 2.78% | viability, T/C [12] 3.08% | viability, T/C [18] 3.41% | viability, T/C [24] 2.83% | viability, T/C [30] 1.44% | viability, T/C [36] 1.37%
